Source: ChEMBL document CHEMBL4359915, “Design, synthesis and biological evaluation of novel diazaspiro[4.5]decan-1-one derivatives as potential chitin synthase inhibitors and antifungal agents” (Eur J Med Chem, 2019)
Values after ≈ are worked out from the molar mass of the structure shown.

Experiments:
Candida tropicalis = assay: Inhibition of Candida tropicalis ATCC 750 chitin synthase at 300 ug/ml using UDP-GlcNAc as substrate relative to control
Candida albicans [1] = assay: Antifungal activity against Candida albicans ATCC 76615 assessed as growth inhibition measured after 24 hrs by two-fold broth dilution method; format: functional; details: ATCC 76615, 24 h
Aspergillus fumigatus = assay: Antifungal activity against Aspergillus fumigatus GIMCC 3.19 assessed as growth inhibition measured after 24 hrs by two-fold broth dilution method; format: functional; details: GIMCC 3.19, 24 h
Candida albicans [2] = assay: Antifungal activity against Candida albicans ATCC 90023 assessed as growth inhibition measured after 24 hrs by two-fold broth dilution method; format: functional; details: ATCC 90023, 24 h
Cryptococcus neoformans = assay: Antifungal activity against Cryptococcus neoformans ATCC 32719 assessed as growth inhibition measured after 24 hrs by two-fold broth dilution method; format: functional; details: ATCC 32719, 24 h
Aspergillus flavus = assay: Antifungal activity against Aspergillus flavus ATCC 16870 assessed as growth inhibition measured after 24 hrs by two-fold broth dilution method; format: functional; details: ATCC 16870, 24 h
Staphylococcus aureus [3] = assay: Antibacterial activity against methicillin-resistant Staphylococcus aureus N315 assessed as growth inhibition measured after 24 hrs by two-fold broth dilution method; format: functional; details: N315, 24 h
Staphylococcus aureus [4] = assay: Antibacterial activity against Staphylococcus aureus ATCC 25923 assessed as growth inhibition measured after 24 hrs by two-fold broth dilution method; format: functional; details: ATCC 25923, 24 h
Bacillus spizizenii = assay: Antibacterial activity against Bacillus subtilis ATCC 6633 assessed as growth inhibition measured after 24 hrs by two-fold broth dilution method; format: functional; details: ATCC 6633, 24 h
Escherichia coli = assay: Antibacterial activity against Escherichia coli JM 109 assessed as growth inhibition measured after 24 hrs by two-fold broth dilution method; format: functional; details: JM 109, 24 h
Pseudomonas aeruginosa = assay: Antibacterial activity against Pseudomonas aeruginosa ATCC 9027 assessed as growth inhibition measured after 24 hrs by two-fold broth dilution method; format: functional; details: ATCC 9027, 24 h
[5] = Inhibition of Candida tropicalis ATCC 750 chitin synthase using UDP-GlcNAc as substrate
Proteus vulgaris = assay: Antibacterial activity against Bacillus proteus ATCC 8427 assessed as growth inhibition measured after 24 hrs by two-fold broth dilution method; format: functional; details: ATCC 8427, 24 h

SMILES	inhibition (Candida tropicalis) [%]	MIC (Candida albicans [1]) [µM]	MIC (Aspergillus fumigatus) [µM]	MIC (Candida albicans [2]) [µM]	MIC (Cryptococcus neoformans) [µM]	MIC (Aspergillus flavus) [µM]	MIC (Staphylococcus aureus [3]) [µM]	MIC (Staphylococcus aureus [4]) [µM]	MIC (Bacillus spizizenii) [µM]	MIC (Escherichia coli) [µM]	MIC (Pseudomonas aeruginosa) [µM]	IC50 [5] [µM]	MIC (Proteus vulgaris) [µM]
O=C(Nc1ccc(F)cc1F)[C@H](O)[C@@H](O)C(=O)N1CCC2(CCNC2=O)CC1	65.2	640 (≈ 254 µg/mL)	80 (≈ 31.8 µg/mL)	320 (≈ 127 µg/mL)	640 (≈ 254 µg/mL)	320 (≈ 127 µg/mL)	80 (≈ 31.8 µg/mL)	320 (≈ 127 µg/mL)	160 (≈ 63.6 µg/mL)	320 (≈ 127 µg/mL)	320 (≈ 127 µg/mL)	290	160 (≈ 63.6 µg/mL)
O=C(Nc1ccccc1F)[C@H](O)[C@@H](O)C(=O)N1CCC2(CCNC2=O)CC1	23.1	340 (≈ 129 µg/mL)	670 (≈ 254 µg/mL)	670 (≈ 254 µg/mL)	670 (≈ 254 µg/mL)	340 (≈ 129 µg/mL)	340 (≈ 129 µg/mL)	340 (≈ 129 µg/mL)	670 (≈ 254 µg/mL)	670 (≈ 254 µg/mL)	1350 (≈ 512 µg/mL)		670 (≈ 254 µg/mL)
O=C(Nc1ccc(F)cc1)[C@H](O)[C@@H](O)C(=O)N1CCC2(CCNC2=O)CC1	36.7	340 (≈ 129 µg/mL)	340 (≈ 129 µg/mL)	340 (≈ 129 µg/mL)	670 (≈ 254 µg/mL)	340 (≈ 129 µg/mL)	340 (≈ 129 µg/mL)	670 (≈ 254 µg/mL)	340 (≈ 129 µg/mL)	670 (≈ 254 µg/mL)	1350 (≈ 512 µg/mL)		340 (≈ 129 µg/mL)
CN[C@@H]1[C@H](O[C@H]2[C@H](O[C@H]3[C@H](O)[C@@H](O)[C@H](N=C(N)N)[C@@H](O)[C@@H]3N=C(N)N)O[C@@H](C)[C@]2(O)C=O)O[C@@H](CO)[C@H](O)[C@H]1O [STREPTOMYCIN]							55 (≈ 32 µg/mL)	28 (≈ 16.3 µg/mL)	28 (≈ 16.3 µg/mL)	14 (≈ 8.14 µg/mL)	7 (≈ 4.07 µg/mL)		14 (≈ 8.14 µg/mL)
O=C(Nc1cccc(C(F)(F)F)c1)[C@H](O)[C@@H](O)C(=O)N1CCC2(CCNC2=O)CC1	47.1	300 (≈ 129 µg/mL)	600 (≈ 258 µg/mL)	300 (≈ 129 µg/mL)	70 (≈ 30.1 µg/mL)	60 (≈ 25.8 µg/mL)	300 (≈ 129 µg/mL)	300 (≈ 129 µg/mL)	150 (≈ 64.4 µg/mL)	150 (≈ 64.4 µg/mL)	300 (≈ 129 µg/mL)		150 (≈ 64.4 µg/mL)
O=C(Nc1ccccc1)[C@H](O)[C@@H](O)C(=O)N1CCC2(CCNC2=O)CC1	1.8	710 (≈ 257 µg/mL)	1420 (≈ 513 µg/mL)	710 (≈ 257 µg/mL)	710 (≈ 257 µg/mL)	1420 (≈ 513 µg/mL)	710 (≈ 257 µg/mL)	1420 (≈ 513 µg/mL)	710 (≈ 257 µg/mL)	710 (≈ 257 µg/mL)	710 (≈ 257 µg/mL)		1420 (≈ 513 µg/mL)
OC(Cn1cncn1)(Cn1cncn1)c1ccc(F)cc1F [FLUCONAZOLE]		52 (≈ 15.9 µg/mL)	104 (≈ 31.9 µg/mL)	104 (≈ 31.9 µg/mL)	52 (≈ 15.9 µg/mL)	209 (≈ 64 µg/mL)							
COc1ccccc1NC(=O)[C@H](O)[C@@H](O)C(=O)N1CCC2(CCNC2=O)CC1	20.4	650 (≈ 254 µg/mL)	330 (≈ 129 µg/mL)	40 (≈ 15.7 µg/mL)	330 (≈ 129 µg/mL)	650 (≈ 254 µg/mL)	330 (≈ 129 µg/mL)	1310 (≈ 513 µg/mL)	650 (≈ 254 µg/mL)	650 (≈ 254 µg/mL)	650 (≈ 254 µg/mL)		330 (≈ 129 µg/mL)
O=C(Nc1ccc(Cl)cc1Cl)[C@H](O)[C@@H](O)C(=O)N1CCC2(CCNC2=O)CC1	82.8	590 (≈ 254 µg/mL)	590 (≈ 254 µg/mL)	300 (≈ 129 µg/mL)	590 (≈ 254 µg/mL)	300 (≈ 129 µg/mL)	150 (≈ 64.5 µg/mL)	590 (≈ 254 µg/mL)	300 (≈ 129 µg/mL)	150 (≈ 64.5 µg/mL)	300 (≈ 129 µg/mL)	130	150 (≈ 64.5 µg/mL)
